According to ChEMBL document CHEMBL1201862, “PubChem BioAssay data set” (2004):
Calls of active or inactive are those of the source.

Tests used:
[1] = target: DNA damage-inducible transcript 3 protein (Mus musculus, UniProt P35639); type: functional, Cricetulus griseus
[2] = target: T1, Heat shock factor protein 1 (Mus musculus, UniProt P38532); assay: enhancement of HSF1-driven luciferase signal – cell-based, NIH3T3, luminescence, dose retest, confirmation (AID 435004); type: functional;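 also: stress induced by proteasome inhibitor MG132 added 30 min after compound; luciferase reporter driven by HSF1 response element in NIH3T3 cells; actives raise luminescence as potentiators of the MG132 stress response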
T1 sequence (P38532 whole entry): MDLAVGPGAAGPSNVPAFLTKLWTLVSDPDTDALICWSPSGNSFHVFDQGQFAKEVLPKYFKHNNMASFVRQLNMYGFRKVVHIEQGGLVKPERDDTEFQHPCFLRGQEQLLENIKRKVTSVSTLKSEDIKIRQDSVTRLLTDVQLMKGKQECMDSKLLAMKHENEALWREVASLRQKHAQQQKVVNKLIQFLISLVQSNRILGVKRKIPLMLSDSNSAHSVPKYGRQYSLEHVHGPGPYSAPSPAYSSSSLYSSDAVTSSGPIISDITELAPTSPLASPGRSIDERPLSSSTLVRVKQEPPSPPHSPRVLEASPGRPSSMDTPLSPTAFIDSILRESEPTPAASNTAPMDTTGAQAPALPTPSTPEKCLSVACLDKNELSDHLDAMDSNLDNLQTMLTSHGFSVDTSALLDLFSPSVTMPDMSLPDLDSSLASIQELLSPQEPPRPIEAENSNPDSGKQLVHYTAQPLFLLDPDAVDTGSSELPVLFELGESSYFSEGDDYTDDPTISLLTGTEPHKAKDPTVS

Coagulation factor XII = target: T2, Coagulation factor XII (Homo sapiens, UniProt P00748); type: functional;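 also: activated factor XIIa alpha cleaving a fluorogenic AMC peptide substrate; inhibitor potency from loss of enzyme activity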
T2 sequence (P00748 whole entry): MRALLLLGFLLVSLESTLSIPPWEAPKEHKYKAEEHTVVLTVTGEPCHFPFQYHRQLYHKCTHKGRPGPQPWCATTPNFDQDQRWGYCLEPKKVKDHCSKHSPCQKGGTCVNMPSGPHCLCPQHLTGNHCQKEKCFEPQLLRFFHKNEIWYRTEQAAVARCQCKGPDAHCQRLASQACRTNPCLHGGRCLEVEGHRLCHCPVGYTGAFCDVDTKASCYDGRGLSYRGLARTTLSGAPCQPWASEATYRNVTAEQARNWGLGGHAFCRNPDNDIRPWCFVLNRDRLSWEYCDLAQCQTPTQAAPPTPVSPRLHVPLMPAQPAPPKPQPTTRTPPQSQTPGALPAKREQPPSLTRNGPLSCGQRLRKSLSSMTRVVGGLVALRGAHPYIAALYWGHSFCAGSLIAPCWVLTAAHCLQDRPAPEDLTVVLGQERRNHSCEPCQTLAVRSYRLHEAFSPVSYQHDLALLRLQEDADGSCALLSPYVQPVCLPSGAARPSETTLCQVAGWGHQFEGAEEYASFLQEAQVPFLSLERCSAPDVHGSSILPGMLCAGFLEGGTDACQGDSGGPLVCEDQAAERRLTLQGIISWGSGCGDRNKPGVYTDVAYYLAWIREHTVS

Phospholipase A2 = Phospholipase A2 (Homo sapiens, UniProt P04054); type: functional;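 also: confirmatory dose-response counterscreen on phospholipase A2, testing hits that came from an ultra-high-throughput screen for ATG4B inhibitors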
Sequence of Phospholipase A2 (P04054 whole entry): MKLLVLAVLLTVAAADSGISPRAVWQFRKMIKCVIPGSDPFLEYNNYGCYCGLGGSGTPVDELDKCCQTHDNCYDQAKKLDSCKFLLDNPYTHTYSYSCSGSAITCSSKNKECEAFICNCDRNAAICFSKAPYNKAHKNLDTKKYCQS

Cysteine protease ATG4B = target: T3, Cysteine protease ATG4B (Homo sapiens, UniProt Q9Y4P1); type: functional;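 also: Fluorescence-based dose-response confirmation assay measuring inhibition of ATG4B activity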
T3 sequence (Q9Y4P1 whole entry): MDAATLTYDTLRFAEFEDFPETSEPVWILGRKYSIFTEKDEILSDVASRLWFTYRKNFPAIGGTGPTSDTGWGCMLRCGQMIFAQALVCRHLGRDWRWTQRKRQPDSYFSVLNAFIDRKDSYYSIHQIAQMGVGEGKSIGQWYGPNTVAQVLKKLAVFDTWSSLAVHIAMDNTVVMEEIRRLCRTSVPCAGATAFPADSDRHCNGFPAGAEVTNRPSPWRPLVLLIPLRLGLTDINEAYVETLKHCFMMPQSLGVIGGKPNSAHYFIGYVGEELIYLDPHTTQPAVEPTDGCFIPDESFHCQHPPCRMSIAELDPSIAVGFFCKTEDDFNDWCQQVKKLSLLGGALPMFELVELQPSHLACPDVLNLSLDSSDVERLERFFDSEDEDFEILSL

[3] = target: T4, Probable nicotinate-nucleotide adenylyltransferase (Staphylococcus aureus (strain N315), UniProt P65502); type: functional, Staphylococcus aureus subsp. aureus N315; settings: read-out: IC50_Mean;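 as to IC50 Mean: confirmatory dose-response retesting of NadD inhibitor hits first found in an ultra-high-throughput screen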
T4 sequence (P65502 whole entry): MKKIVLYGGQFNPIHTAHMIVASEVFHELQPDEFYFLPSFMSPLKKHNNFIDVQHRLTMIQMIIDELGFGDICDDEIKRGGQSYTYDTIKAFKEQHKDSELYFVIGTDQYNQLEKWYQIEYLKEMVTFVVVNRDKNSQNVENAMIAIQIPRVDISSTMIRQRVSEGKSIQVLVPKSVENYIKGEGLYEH

Protein RecA = target: T5, Protein RecA (Mycobacterium tuberculosis, UniProt P9WHJ3); assay: Fluorescence Cell-Free Homogeneous Dose Retest to Identify Inhibitors of RecA-Intein Splicing Activity. [Related pubchem assays (depositor defined):AID2097, AID2223, AID489010, AID492950]; type: functional
T5 sequence (P9WHJ3 whole entry): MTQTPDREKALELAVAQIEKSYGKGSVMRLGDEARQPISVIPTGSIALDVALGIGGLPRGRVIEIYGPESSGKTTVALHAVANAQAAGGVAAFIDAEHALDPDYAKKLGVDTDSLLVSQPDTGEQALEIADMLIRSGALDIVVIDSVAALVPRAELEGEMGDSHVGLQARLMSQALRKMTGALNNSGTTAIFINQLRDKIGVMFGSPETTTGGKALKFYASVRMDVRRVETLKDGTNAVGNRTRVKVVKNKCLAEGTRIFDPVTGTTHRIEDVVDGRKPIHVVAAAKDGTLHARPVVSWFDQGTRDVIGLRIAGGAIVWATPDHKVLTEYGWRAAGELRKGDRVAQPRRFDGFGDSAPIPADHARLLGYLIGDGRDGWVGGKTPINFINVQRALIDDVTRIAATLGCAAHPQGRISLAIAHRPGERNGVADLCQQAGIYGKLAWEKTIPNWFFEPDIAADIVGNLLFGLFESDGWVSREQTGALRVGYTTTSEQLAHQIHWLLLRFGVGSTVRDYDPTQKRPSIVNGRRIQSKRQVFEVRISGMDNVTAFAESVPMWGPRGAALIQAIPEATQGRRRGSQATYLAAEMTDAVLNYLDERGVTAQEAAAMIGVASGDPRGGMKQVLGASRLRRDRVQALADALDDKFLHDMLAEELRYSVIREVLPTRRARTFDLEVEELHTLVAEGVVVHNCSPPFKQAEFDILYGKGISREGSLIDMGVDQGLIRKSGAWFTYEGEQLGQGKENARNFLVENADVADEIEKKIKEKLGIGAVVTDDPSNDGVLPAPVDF

[4] = target: T4, Probable nicotinate-nucleotide adenylyltransferase; type: functional, Staphylococcus aureus subsp. aureus N315
[5] = target: T6, Replicative DNA helicase DnaB (Mycobacterium tuberculosis, UniProt P9WMR3); assay: DnaB intein splicing inhibitors, dose response, biochemical, cell-free fluorescence (AID 449749); type: functional
T6 sequence (P9WMR3 whole entry): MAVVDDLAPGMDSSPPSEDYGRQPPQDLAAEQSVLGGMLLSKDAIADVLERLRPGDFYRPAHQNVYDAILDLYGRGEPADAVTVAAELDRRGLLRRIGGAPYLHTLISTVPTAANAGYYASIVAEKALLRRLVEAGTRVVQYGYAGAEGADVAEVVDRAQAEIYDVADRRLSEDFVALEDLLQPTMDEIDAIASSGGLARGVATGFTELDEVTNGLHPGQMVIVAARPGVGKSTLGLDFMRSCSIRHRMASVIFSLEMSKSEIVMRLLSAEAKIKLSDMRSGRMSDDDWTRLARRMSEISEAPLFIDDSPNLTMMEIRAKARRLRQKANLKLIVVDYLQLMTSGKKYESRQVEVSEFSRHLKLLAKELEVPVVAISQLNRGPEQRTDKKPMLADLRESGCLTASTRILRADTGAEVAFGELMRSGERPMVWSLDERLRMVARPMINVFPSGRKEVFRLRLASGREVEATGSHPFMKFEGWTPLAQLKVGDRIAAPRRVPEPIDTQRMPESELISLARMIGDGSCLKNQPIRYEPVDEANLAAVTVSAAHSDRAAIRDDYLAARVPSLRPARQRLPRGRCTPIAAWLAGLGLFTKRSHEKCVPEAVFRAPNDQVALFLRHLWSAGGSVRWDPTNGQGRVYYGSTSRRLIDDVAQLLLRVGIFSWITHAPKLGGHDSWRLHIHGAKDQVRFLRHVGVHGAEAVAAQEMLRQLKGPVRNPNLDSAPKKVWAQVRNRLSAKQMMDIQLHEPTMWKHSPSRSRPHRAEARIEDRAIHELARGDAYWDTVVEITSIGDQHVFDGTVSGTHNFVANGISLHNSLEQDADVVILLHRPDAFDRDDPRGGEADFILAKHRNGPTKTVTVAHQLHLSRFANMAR

cells = type: functional
[6] = THP-1 cell cytotoxicity, dose response, cytotoxicity control for non-replicating M. tuberculosis project (AID 489025); type: functional
BJ [7] = assay: BJ-TERT fibroblast viability loss – cell-based, RAS-independent, luminescence, dose response (AID 1933); type: functional; settings: Homo sapiens
BJ [8] = assay: cells; type: functional, cell-based; settings: Homo sapiens
[9] = Trypanosoma cruzi growth suppression in host cells – NIH3T3 host cells, beta-gal luminescence, confirmation (AID 2044); type: functional, cell-based;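 also: intracellular parasites grown in NIH/3T3 mouse fibroblasts as host cells; luminescent beta-galactosidase reporter signal from transgenic T. cruzi replicating inside host cells; inhibitors lower the luminescence signal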
[10] = microbe, parasite or virus in culture; type: functional; settings: Mycobacterium tuberculosis
[11] = HepG2 cell cytotoxicity, dose response, cytotoxicity control for non-replicating M. tuberculosis project (AID 489018); type: functional; settings: Mycobacterium tuberculosis
[12] = target: T7, Tyrosyl-DNA phosphodiesterase 2 (Homo sapiens, UniProt O95551); assay: potency against TDP2 phosphodiesterase activity – biochemical, epi absorbance, IC50, dose response (AID 743297)
T7 sequence (O95551 whole entry): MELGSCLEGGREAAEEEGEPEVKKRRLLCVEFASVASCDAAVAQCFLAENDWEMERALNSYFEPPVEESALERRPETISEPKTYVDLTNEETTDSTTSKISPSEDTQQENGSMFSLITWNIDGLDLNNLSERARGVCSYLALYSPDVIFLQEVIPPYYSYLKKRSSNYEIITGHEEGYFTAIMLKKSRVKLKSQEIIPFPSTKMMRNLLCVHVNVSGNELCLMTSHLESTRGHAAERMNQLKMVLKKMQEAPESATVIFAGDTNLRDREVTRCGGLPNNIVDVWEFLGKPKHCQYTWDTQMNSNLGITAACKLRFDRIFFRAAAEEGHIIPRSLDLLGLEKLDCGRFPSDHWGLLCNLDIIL

INS1 = assay: INS-1E survival protection against cytokine death – cell-based, luminescence, retest, dose response (AID 449756); type: functional; settings: Rattus norvegicus;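 also: cell death triggered by IL-1 beta plus TNF-alpha plus IFN-gamma mixture; protective hits raise ATP signal compared with cytokine alone wells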
BJ [13] = assay: BJ-TERT-LT-ST fibroblast viability loss – cell-based, RAS-independent, luminescence, dose response (AID 1935); type: functional; settings: Homo sapiens;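 also: BJ fibroblasts immortalized with TERT plus LT and ST oncogenes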
[14] = DRD fibroblast viability loss – cell-based, non-viral oncogenic, luminescence, dose response (AID 1934); type: functional; settings: Homo sapiens
[15] = viability of HCT116 lacking mutant beta-catenin – cell-based, human colon tumor, dose response (AID 1045); type: functional;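 also: HCT116 colon tumor cells with beta catenin knocked out; cells exposed to compound for 60 hours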
[16] = NIH3T3 cell viability loss – ATP luminescence, mouse fibroblasts, counter-screen, dose response (AID 2010); type: functional, cell-based;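 also: cells exposed to compound for about 90 hours before reading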
[17] = Vero E6 cell cytotoxicity, dose response, cytotoxicity control for non-replicating M. tuberculosis project, secondary assay (AID 492998); type: functional, VeroE6; settings: Vero C1008
[18] = target: T8, Mannose-6-phosphate isomerase (Homo sapiens, UniProt P34949); assay: MPI inhibition at elevated mannose 6-phosphate – biochemical, fluorescence intensity, high mannose 6-phosphate, primary screen (AID 1220)
T8 sequence (P34949 whole entry): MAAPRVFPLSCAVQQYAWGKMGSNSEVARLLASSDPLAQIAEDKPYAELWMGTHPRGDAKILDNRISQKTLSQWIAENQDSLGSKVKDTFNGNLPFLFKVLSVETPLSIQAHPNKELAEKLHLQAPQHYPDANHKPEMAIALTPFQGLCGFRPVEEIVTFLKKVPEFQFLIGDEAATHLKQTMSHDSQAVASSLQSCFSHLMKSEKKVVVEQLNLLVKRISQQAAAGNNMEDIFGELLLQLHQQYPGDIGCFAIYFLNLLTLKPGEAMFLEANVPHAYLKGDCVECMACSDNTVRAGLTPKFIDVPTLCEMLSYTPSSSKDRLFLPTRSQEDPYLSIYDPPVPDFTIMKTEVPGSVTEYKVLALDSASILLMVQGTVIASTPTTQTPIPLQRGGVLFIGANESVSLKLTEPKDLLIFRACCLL

[19] = viability of PTEN-deleted HCT116 cells – cell-based, HCT116 PTEN knockout, dose response (AID 1047); type: functional;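 also: HCT116 colon tumor cells with PTEN knocked out; cells exposed to compound for 60 hours before readout; potency for loss of cell viability measured by luminescence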

Sequence of DNA damage-inducible transcript 3 protein (P35639 whole entry): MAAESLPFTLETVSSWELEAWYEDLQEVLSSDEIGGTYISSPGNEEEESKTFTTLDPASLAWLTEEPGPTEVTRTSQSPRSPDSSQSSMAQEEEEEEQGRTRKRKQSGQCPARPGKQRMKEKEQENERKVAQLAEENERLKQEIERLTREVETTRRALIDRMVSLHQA

SMILES: CCn1cc([N+](=O)[O-])c(C(=O)N2N=C(c3ccc(Cl)c(Cl)c3)CC2c2ccccc2O)n1 (stereo unspecified)
- Absolute IC50 (CHOP) [1]: 10 µM
- EC50 [2]: > 260 µM (inactive)

SMILES: CCC1SC(CC)C(=O)N(CC(=O)NC2CCCCC2)C1=O (stereo unspecified)
- IC50 (Coagulation factor XII): > 50 µM (inactive)

SMILES: CN(C)c1ccc(-c2nnn(Cc3ccccc3Br)n2)cc1
- IC50 (Phospholipase A2): 7.95 µM (active)
- IC50 (Cysteine protease ATG4B): 13.2 µM (active)

SMILES: CC(=O)c1ccc(N2CCN(S(=O)(=O)c3cccc(S(=O)(=O)N4CCOCC4)c3)CC2)cc1
- IC50 (Coagulation factor XII): > 50 µM (inactive)

SMILES: CCOc1ccc(N2C(=O)/C(=C\c3ccc(O)c(OC)c3)S(=O)(=O)C2c2cccc([N+](=O)[O-])c2)cc1 (stereo unspecified)
- Absolute IC50 (CHOP) [1]: 10 µM
- IC50 [3]: 35.9 µM (active)
- EC50 [2]: 8.52 µM (active)
- EC50 (Protein RecA): 3.74 µM (active)
- IC50 [4]: 9.57 µM (active)
- AC50 [5]: 2.96 µM (active)

SMILES: O=C1OC(Nc2ncccn2)c2ccccc21 (stereo unspecified)
- IC50 (Coagulation factor XII): > 50 µM (inactive)

SMILES: CCCNC1=C(N(C(C)=O)c2cccc(F)c2)C(=O)c2ccccc2C1=O
- IC50 (cells): 20.8 µM (active)
- CC50 [6]: 1.47 µM (active)
- EC50 (BJ [7]): 6.47 µM (inconclusive)
- EC50 (BJ [8]): 5.96 µM (active)
- EC50 [9]: 1.23 µM (active)
- CC50 [10]: 31 µM (active)
- EC50 (Protein RecA): 2.06 µM (active)
- CC50 [11]: 8.6 µM (active)
- IC50 [12]: > 4.75 µM (active)
- AC50 (INS1): 1.03 µM (active)
- EC50 (BJ [13]): 6.6 µM (active)
- EC50 [14]: 6.47 µM (active)
- EC50 [15]: 0.979 µM (active)
- EC50 [16]: 10.3 µM (active)
- AC50 [5]: 9.44 µM (active)
- CC50 [17]: 17.7 µM (active)
- IC50 [18]: > 50 µM (not active)
- EC50 [19]: 1.14 µM (active)
